Paper PMC8253220, “Molecular design, synthesis and in vitro biological evaluation of thienopyrimidine–hydroxamic acids as chimeric kinase HDAC inhibitors: a challenging approach to combat cancer” (Journal of Enzyme Inhibition and Medicinal Chemistry, 2021)
pIC50: −log10 of the molar value.

What was measured:
VEGFR-2 = VEGFR-2 (Homo sapiens, UniProt P35968); experiment: In vitro VEGFR-2 tyrosine kinase inhibitory assay (Z'-LYTE, SelectScreen); type: biochemical; conditions: 10 µM single dose
Protocol: The target compounds were evaluated for their in vitro inhibitory activities against EGFR, VEGFR-2, and HDAC6. The EGFR and VEGFR-2 inhibitory assays were performed at Thermo Fischer Scientific, Madison, WI, USA (SelectScreenServices@thermofisher.com). The HDAC inhibitory assays were performed at BPS Bioscience, San Diego, CA, USA (www.bpsbioscience.com). Initially, all of the synthesised target compounds were evaluated for their percent inhibitory activity against EGFR, VEGFR-2, and HDACs at 10 µM single dose concentration, in which their mean percent inhibition is summarised in (Figure 5, Tables 1 and [2]). Representative compounds were evaluated for their percent inhibitory activity against EGFR and VEGFR-2 at 6 different concentrations (0.1 nM, 1 nM, 10 nM, 100 nM, 1 µM, 10 µM) to subsequently calculate their IC50 values (Table 3). Additionally, all of the synthesised target compounds were submitted to the National Cancer Institute “NCI” Bethesda, Maryland, USA (www.dtp.nci.nih.gov), to evaluate theirs in vitro antiproliferative activities against NCI 60- cancer cell line panel.
In vitro enzyme inhibition determination for the synthesised compounds was carried out in Thermo Fischer Scientific, Madison, WI, USA (SelectScreenServices@thermofisher.com). The EGFR and VEGFR-2 tyrosine kinase % inhibitory activity at a single-dose concentration of 10 µM was performed initially then representative compounds were evaluated at single-dose concentrations of (0.1 nM, 1 nM, 10 nM, 100 nM, 1 µM) using ZYLTE technology. A fluorescence-based, coupled-enzyme format is employed in the biochemical assay and depends on the sensitivity of proteolytic cleavage to non-phosphorylated and phosphorylated peptides. Then IC50 values for selected compounds were determined by GraphPad Prism at Misr international university.

HDAC6 = biological target: T1, HDAC6 (Homo sapiens, UniProt Q9UBN7); experiment: In vitro HDAC6 inhibitory assay (BPS Bioscience, fluorogenic); type: biochemical; conditions: read-out: % Inhibition HDAC6
T1 construct: purchased BPS Bioscience 50006
T1 sequence (Q9UBN7 1-1215): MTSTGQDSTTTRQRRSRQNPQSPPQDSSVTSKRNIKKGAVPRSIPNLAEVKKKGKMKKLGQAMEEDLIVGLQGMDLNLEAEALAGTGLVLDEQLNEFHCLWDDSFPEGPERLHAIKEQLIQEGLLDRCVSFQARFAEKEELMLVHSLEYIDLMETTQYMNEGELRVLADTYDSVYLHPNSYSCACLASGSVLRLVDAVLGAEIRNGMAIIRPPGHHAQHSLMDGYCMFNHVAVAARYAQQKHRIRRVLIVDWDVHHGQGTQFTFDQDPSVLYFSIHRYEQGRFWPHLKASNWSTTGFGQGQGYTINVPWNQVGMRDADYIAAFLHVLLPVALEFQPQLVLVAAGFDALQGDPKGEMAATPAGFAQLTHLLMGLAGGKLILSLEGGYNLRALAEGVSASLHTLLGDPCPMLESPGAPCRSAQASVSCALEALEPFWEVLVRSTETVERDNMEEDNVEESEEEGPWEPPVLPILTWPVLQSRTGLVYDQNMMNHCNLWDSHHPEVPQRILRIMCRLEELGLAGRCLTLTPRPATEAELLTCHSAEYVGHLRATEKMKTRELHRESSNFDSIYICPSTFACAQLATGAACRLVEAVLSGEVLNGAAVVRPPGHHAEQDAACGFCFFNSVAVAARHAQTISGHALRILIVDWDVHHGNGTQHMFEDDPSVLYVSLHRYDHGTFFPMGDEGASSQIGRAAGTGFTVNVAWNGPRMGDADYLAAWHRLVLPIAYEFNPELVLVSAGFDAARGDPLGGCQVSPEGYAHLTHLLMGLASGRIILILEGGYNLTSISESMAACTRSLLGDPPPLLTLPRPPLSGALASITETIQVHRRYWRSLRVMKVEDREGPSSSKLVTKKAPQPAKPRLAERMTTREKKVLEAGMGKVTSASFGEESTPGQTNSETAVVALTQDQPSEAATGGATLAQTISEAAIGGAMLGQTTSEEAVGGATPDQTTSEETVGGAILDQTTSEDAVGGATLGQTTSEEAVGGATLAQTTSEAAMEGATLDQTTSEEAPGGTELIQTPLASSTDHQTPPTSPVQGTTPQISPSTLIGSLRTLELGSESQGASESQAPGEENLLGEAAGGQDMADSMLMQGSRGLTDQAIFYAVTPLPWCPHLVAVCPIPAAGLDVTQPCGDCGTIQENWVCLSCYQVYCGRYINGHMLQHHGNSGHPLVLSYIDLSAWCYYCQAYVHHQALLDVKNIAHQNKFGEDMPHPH
Protocol: (1 picture or pasted object on this page, not shown here)
HDAC activity assays were performed in duplicates at each concentration. The

Hela nuclear extracts = experiment: Hela nuclear extract HDAC inhibitor assay (BPS Bioscience); type: biochemical
Protocol: The purpose of the study is to determine the effects of twenty compounds from Misr International University on the enzymatic activities of hela nuclear extracts using an in vitro […]
7a Solution 10mM DMSO 10 10 % DMSO in
7b Solution 10mM DMSO 10 10 % DMSO in
7d Solution 10mM DMSO 10 10 % DMSO in
2.3 Experimental Conditions
2.3.1 Enzymes and Substrates
Assay Catalog # Substrate
Hela Nuclear Exctract 50053 10 µM HDAC Substrate 3
For the hela nuclear extracts, hela cells were grown to 90 % confluency. Hela nuclear extracts were prepared from the Nuclear Extraction Kit from abcam (Catalog # ab113474). The final total protein concentration was calculated to be 2.4 µg/µl. From this, the hela nuclear extracts was diluted 20-fold in HDAC assay buffer and 5 µl of the dilution was added to a 50 µl reaction.
The compounds are dissolved in DMSO. A series of dilutions of the compounds were prepared with 10% DMSO in HDAC assay buffer and 5 µl of the dilution was added to a 50 µl reaction so that the final concentration of DMSO is 1 % in all of […]
The enzymatic reactions for the hela nuclear extract were conducted in duplicate at 37 °C for 60 minutes in a 50 µl mixture containing HDAC assay buffer, 5 µg BSA, an HDAC substrate (see 2.3.1), hela nuclear extract, and a test compound (see 2.2).
After enzymatic reactions, 50μl of 2 x HDAC Developer was added to each well for the hela nuclear extract and the plate was incubated at room temperature for an additional 15 […]
Fluorescence intensity was measured at an excitation of 360 nm and an emission of 460 nm using a Tecan Infinite M1000 microplate reader.
Hela nuclear extract activity assays were performed in duplicates at each concentration.
The fluorescent intensity data were analyzed using the computer software, Graphpad Prism. In the absence of the compound, the fluorescent intensity (Ft) in each data set was defined as 100% activity. In the absence of hela nuclear extract, the fluorescent intensity (Fb) in each data set was defined as 0% activity. The percent activity in the presence of each compound was calculated according to the following equation: %activity = (F-Fb)/(Ft-Fb), where F= the fluorescent intensity in the presence of the compound.
The values of percentage activity were plotted on a bar graph.

VEGFR2 = conditions: read-out: IC50 VEGFR-2; cited from earlier work

Chain of VEGFR-2 (P35968 20-1356): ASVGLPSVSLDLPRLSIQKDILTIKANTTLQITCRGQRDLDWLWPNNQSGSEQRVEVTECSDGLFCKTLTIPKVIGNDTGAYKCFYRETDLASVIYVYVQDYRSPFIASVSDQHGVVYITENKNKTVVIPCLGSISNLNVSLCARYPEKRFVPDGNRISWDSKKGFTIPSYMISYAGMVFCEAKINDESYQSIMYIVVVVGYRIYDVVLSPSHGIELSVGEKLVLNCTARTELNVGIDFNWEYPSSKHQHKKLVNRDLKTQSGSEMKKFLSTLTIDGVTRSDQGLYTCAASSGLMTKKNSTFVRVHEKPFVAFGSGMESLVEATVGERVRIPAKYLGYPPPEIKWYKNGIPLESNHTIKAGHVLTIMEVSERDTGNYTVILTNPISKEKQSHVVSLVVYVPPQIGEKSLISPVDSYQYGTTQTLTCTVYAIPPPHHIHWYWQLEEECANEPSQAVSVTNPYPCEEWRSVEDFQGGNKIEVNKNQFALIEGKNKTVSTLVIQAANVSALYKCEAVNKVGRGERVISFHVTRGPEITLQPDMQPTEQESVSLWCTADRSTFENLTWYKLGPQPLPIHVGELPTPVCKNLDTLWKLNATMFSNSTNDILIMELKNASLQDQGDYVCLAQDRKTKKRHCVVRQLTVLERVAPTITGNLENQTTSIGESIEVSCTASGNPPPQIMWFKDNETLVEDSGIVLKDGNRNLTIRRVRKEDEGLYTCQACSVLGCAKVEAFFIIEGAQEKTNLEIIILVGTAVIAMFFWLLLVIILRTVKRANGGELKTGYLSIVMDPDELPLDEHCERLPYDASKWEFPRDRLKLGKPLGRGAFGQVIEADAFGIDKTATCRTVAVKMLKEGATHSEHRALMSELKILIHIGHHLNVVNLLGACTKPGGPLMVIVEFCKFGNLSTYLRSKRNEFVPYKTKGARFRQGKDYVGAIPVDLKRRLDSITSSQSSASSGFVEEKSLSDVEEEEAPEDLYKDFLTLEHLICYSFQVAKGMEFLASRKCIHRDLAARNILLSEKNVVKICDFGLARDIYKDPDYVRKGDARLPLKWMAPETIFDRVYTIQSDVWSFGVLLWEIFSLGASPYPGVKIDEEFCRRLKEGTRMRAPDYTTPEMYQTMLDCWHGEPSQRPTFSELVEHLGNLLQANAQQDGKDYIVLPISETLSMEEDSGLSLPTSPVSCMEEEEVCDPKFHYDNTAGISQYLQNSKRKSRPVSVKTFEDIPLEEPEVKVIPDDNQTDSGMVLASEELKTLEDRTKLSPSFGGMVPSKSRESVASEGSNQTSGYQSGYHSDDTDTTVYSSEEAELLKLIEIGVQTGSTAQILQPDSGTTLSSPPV

Compound | melting point [°C] | also measured
CCOC(=O)c1sc2ncnc(Nc3ccc(NC(=O)Nc4cccc(C(F)(F)F)c4)cc3)c2c1C [Compound 6c, Ethyl 4–(4-(3–(3-trifluromethyphenyl)ureido)phenylamino)-5-methylthieno[2,3-d]pyrimidine-6-carboxylate] | 305 to 307 | –
CC(C=CC(=O)NO)=CC(C)C(=O)c1ccc(N(C)C)cc1 (centres unmarked) [TSA, reference compound] | – | inhibition at 0.0005 µM (HDAC6): 23%; inhibition at 0.005 µM (HDAC6): 73%; inhibition at 0.05 µM (HDAC6): 95%; % Inhibition Hela Nuclear Extracts (Hela nuclear extracts; 0.0003 µM (printed 0.0003 M)): 7%; % Inhibition Hela Nuclear Extracts (Hela nuclear extracts; 0.003 µM (printed 0.003 M)): 46%; % Inhibition Hela Nuclear Extracts (Hela nuclear extracts; 0.03 µM (printed 0.03 M)): 88%
Vandetanib | – | pIC50 (VEGFR2): 7.40
CCOC(=O)c1sc2ncnc(Nc3ccc(NC(=O)Nc4ccccc4)cc3)c2c1C [Compound 6a, Ethyl 5-methyl-4–(4-(3-phenylureido)phenylamino)thieno[2,3-d]pyrimidine-6-carboxylate] | 319 to 322 | –
CCOC(=O)c1sc2ncnc(Nc3ccccc3)c2c1C [Compound 14b, Ethyl 5-methyl-4-(phenylamino)thieno[2,3-d]pyrimidine-6-carboxylate] | 170 to 172 | –
CCOC(=O)c1sc2ncnc(Nc3ccc(NC(=O)Nc4cccc(OC)c4)cc3)c2c1C [Compound 6b, Ethyl 4–(4-(3–(3-methoxyphenyl)ureido)phenylamino)-5-methylthieno[2,3-d]pyrimidine-6-carboxylate] | 220 to 222 | –
CCOC(=O)c1sc2ncnc(Nc3ccc(NC(=S)Nc4ccccc4)cc3)c2c1C [Compound 6d, Ethyl 5-methyl-4–(4-(3-phenylthioureido)phenylamino)thieno[2,3-d]pyrimidine-6-carboxylate] | 173 to 175 | –
CCOC(=O)CCNC(=O)c1sc2ncnc(Nc3ccc(NC(=O)Nc4cccc(C(F)(F)F)c4)cc3)c2c1C [Compound 9c, Ethyl 3–(5-methyl-4–(4-(3(3(trifluoromethyl)phenyl)ureido)phenylamino)thieno[2,3-d]pyrimidine-6-carboxamido)propanoate] | 220 | –
CCOC(=O)c1sc2ncnc(Nc3ccc(F)c(Cl)c3)c2c1C [Compound 14d, Ethyl 4–(3-chloro-4-fluorophenylamino)-5-methylthieno[2,3-d]pyrimidine-6-carboxylate] | 154 to 156 | –
CCOC(=O)CCCNC(=O)c1sc2ncnc(Nc3ccc(NC(=O)Nc4ccccc4)cc3)c2c1C [Compound 10a, Ethyl 4–(5-methyl-4–(4-(3-phenylureido)phenylamino)thieno[2,3-d]pyrimidine-6-carboxamido)butanoate] | 219 to 221 | –
CCOC(=O)c1sc2ncnc(Nc3ccc(Cl)cc3)c2c1C [Compound 14c, Ethyl 4–(4-chlorophenylamino)-5-methylthieno[2,3-d]pyrimidine-6-carboxylate] | 174 to 176 | –
CCOC(=O)CCCNC(=O)c1sc2ncnc(Nc3ccc(NC(=O)Nc4cccc(C(F)(F)F)c4)cc3)c2c1C [Compound 10c, Ethyl 4–(5-methyl-4–(4-(3–(3(trifluoromethyl)phenyl)ureido)phenylamino)thieno[2,3-d]pyrimidine-6-carboxamido)butanoate] | 197 to 199 | –
CCOC(=O)c1sc2ncnc(Nc3ccc4[nH]cnc4c3)c2c1C [Compound 14a, Ethyl 4-(1H-benzo[d]imidazol-5-ylamino)-5-methylthieno[2,3-d]pyrimidine-6-carboxylate.] | 250 to 251 | –
CCOC(=O)CCNC(=O)c1sc2ncnc(Nc3ccc(NC(=O)Nc4cccc(OC)c4)cc3)c2c1C [Compound 9b, Ethyl 3–(4-(4–(3-(3-methoxyphenyl)ureido)phenylamino)-5-methylthieno[2,3-d]pyrimidine-6-carboxamido)propanoate] | 250 | –

More lines, main results first:

melting point [°C] | Compound | also measured
202 | CCOC(=O)CCNC(=O)c1sc2ncnc(Nc3ccc(Cl)cc3)c2c1C [Compound 17c] | inhibition at 10 µM (VEGFR-2): 87%
184 | CCOC(=O)CCNC(=O)c1sc2ncnc(Nc3ccc(F)c(Cl)c3)c2c1C [Compound 17d, Ethyl 3–(4-(3-chloro-4-fluorophenylamino)-5-methylthieno[2,3-d]pyrimidine-6-carboxamido)propanoate] | –
131 to 133 | CCOC(=O)CCCNC(=O)c1sc2ncnc(Nc3ccc(F)c(Cl)c3)c2c1C [Compound 18d, Ethyl 4–(4-(3-chloro-4-fluorophenylamino)-5-methylthieno[2,3-d]pyrimidine-6-carboxamido)butanoate] | –
206 | CCOC(=O)CCNC(=O)c1sc2ncnc(Nc3ccccc3)c2c1C [Compound 17b, Ethyl 3–(5-methyl-4-(phenylamino)thieno[2,3-d]pyrimidine-6-carboxamido)propanoate] | –
138 | CCOC(=O)CCCNC(=O)c1sc2ncnc(Nc3ccc(Cl)cc3)c2c1C [Compound 18c, Ethyl 4–(4-(4-chlorophenylamino)-5-methylthieno[2,3-d]pyrimidine-6-carboxamido)butanoate] | –
145 to 147 | CCOC(=O)CCCNC(=O)c1sc2ncnc(Nc3ccccc3)c2c1C [Compound 18b, Ethyl 4–(5-methyl-4-(phenylamino)thieno[2,3-d]pyrimidine-6-carboxamido)butanoate] | –
